Test results from patent publication US20220370586A1, “METHOD OF GENERATING ACTIVATED T CELLS FOR CANCER THERAPY” (Cedars-Sinai Medical Center, priority 2019, published 2022).

Experiments:
[1] = test system: T effector cells; assay: T cell suppression assay (CFSE proliferation of T effector cells, FACS); format: cell-based, human; settings: for effect on T effector cell proliferation (in words): T cell activation by antigen presenting cells, with or without Tregs; for increase of T cell expansion compared to T control group (without molecule): with T-reg (1:1)
From the text: PBMC was isolated (Ficoll, GE Healthcare) from the WBC cone collected from healthy platelet donor. Cells were washed and passed through 40 um cell strainer before being stained with T cell surface antibodies. Then cells were put on cell sorter (BD FACSARIA III). Specific cell populations were collected as follows: CD4^+CD25^− cells (T effector cells), CD4^+CD25^+CD45RA^+CD127^− cells (T regulatory cells) and CD3^− cells (serve as Antigen Presenting Cells, APC). T effector cells were labeled with CellTrace CFSE (Invitrogen), heavily washed before cell number counting. Effector cells and T-regs were then mixed together at 1:1 ratio in culture media (RPMI 1640, 10% FBS, Pen-Strep and 1% NEAA) which enhanced with anti-CD3 (3 ug/ml) anti-CD28 (2 ug/ml) antibodies. APCs were treated with Mitomycin (50 ug/ml) for 30 minutes at 37° C., 5% CO2 incubator, then added to culture mix (APC:T-eff 2:1) as a proliferation co-stimulator. Cell mixture was incubated at 37° C., 5% CO2 for 6 days before being re-stained with T cell surface markers (CD4, CD25) and sent for FACS analysis (FIGS. 1A-1B, 4 and 5).
Molecule 11702 and 11704 were added to treat groups respectively at a concentration gradient of 5 uM, 25 uM and 50 uM.
FACS results focus on CD4^+CD25^−CFES^+ population (T effector cells). […] As T cells proliferate and replicate, CFSE peaks extend successively to left and become less fluorescent (toward negative range). The more cell population moves to left, the stronger the proliferation.

[2] = test system: B16 melanoma; assay: B16 melanoma implantation in C57 BL mice; format: in vivo
Protocol: After implantation of B16 melanoma, C57 BL mice underwent treatment with 11702 GITR agonist or DMSO control. (A) Animals lived longer after GITR agonist intraperitoneal 30 mg/kg treatment twice per week (p=0.0333, log rank). (B) Tumor volume was inhibited in 11702 treated animals (p<0.05, Anova).
After implantation of B16 melanoma, C57 BL mice underwent treatment with 11702 GITR agonist or DMSO control. […] (B) Tumor volume was inhibited in 11702 treated animals (p<0.05, Anova).

| SMILES | inhibition at 50 µM ([1]; Homo sapiens, T-cell, T effector without T-reg, 50 uM, read-out: inhibition (decrease) of T cell proliferation) [%] | inhibition at 25 µM ([1]; Homo sapiens, T-cell, with T-reg, 25 uM, read-out: inhibition (decrease) of T cell expanding) [%] | effect on T effector cell proliferation (in words) [1] | effect on T effector cells ([1]; T effector without T-reg, 5 uM) | effect on T effector cells ([1]; T effector without T-reg, 25 um) | decrease of proliferation compared to base line ([1]; with T-reg, 50 uM) [%] | survival ([2]; intraperitoneal 30 mg/kg twice per week vs DMSO control, p=0.0333, log rank) | PD-1 expression on activated CD4+ and effector memory CD8+ tumor infiltrating lymphocytes ([2]; vs DMSO control) | activated CD4+ cells among tumor infiltrating lymphocytes (FACs) ([2]; vs DMSO control) | effector memory cytotoxic CD8+ T cells among tumor infiltrating lymphocytes (FACs) ([2]; vs DMSO control) | Tumor volume ([2]; vs DMSO control, p<0.05, Anova) | most effective dose to accelerate T cell proliferation ([1]; T effector without T-reg) | increase of proliferated population compared to base line ([1]; T effector without T-reg, 5 uM) [%] | increase of proliferated population compared to base line ([1]; T effector without T-reg, 25 uM) [%] | increase of proliferated population compared to base line ([1]; T effector without T-reg, 50 uM) [%] | increase of T cell expansion compared to T control group (without molecule) ([1]; 5 uM) [%] | increase of T cell expansion compared to T control group (without molecule) ([1]; 25 uM) [%] | increase of T cell expansion compared to T control group (without molecule) ([1]; 50 uM) [%] |
| --- | --- | --- | --- | --- | --- | --- | --- | --- | --- | --- | --- | --- | --- | --- | --- | --- | --- | --- |
| O=C(CCCCC(=O)NN=Cc1cccc(O)c1)NN=Cc1cccc(O)c1 [RMGL171104] | 39.1 | 33.9 | dose dependent retraction of T effector cells | no significant effect | no significant effect | 55.9 | – | – | – | – | – | – | – | – | – | – | – | – |
| OCC1OC(Nc2ccc(-c3ccc(NC4CC(O)C(CO)O4)cc3)cc2)CC1O (stereo not shown) [RMGL171102] | – | – | highly active | – | – | – | lived longer | increased PD-1 expression | increased presence | increased | inhibited | around 25 uM | 47.4 | 61.7 | 52 | 34.4 | 96.7 | 107.1 |
